Assays:
HEI-OC1 cells = assay: TACS MTT cell proliferation / metabolic activity assay in HEI-OC1; format: cell-based, mouse; details: for Proliferative effect and metabolic activity at low concentrations: 0.1 μM to 5 μM, 24 h incubation, also stated for Neuro-2A and HT-1080; for Proliferative effect vs Qx-70 and untreated cells: HEI-OC1, TACS MTT; for Metabolic and proliferative activities at high concentrations: concentrations higher than 5 μM, across all three lines
Procedure: (§1) HEI-OC1 cells derived from the mouse OC (kindly provided by Dr. F. Kalinec) were cultured under permissive conditions (33 °C, 10% CO2) as described in [22]. Additionally, we assessed the activity of Qx-derived compounds in the mouse neuroblastoma cell line, Neuro-2A, and the human fibrosarcoma HT-1080 (ATCC, Manassas, VA, USA) following the standard cell culture guidelines provided by the vendor.
(§2) In vitro cell proliferation effects of all ten initial compounds (Figure 1A,B) were tested on HEI-OC1, Neuro-2A and HT-1080 cells by TACS® 3-(4,5-dimethylthiazol-2-yl)-2,5-diphenyltetrazolium bromide (MTT) Cell Proliferation Assay (R&D Systems, Minneapolis, MN, USA, 4890-025-K), following the manufacturer’s protocol. Absorbance was measured with SpectraMax® M Series Multi-Mode Microplate Reader with Soft Max Pro 7.2 GxP Software (Molecular Devices, Sunnyvale, CA, USA), and the average OD in control cells was taken as 100% of viability. Upon selecting the most viable compounds (Qx-294 and Qx-301), we proceeded with in vivo experiments. For zebrafish treatment, animals were incubated for varied times with different concentrations (50, 100, 150, 200, 250, and 300 μg/mL) of Qx-294 or Qx-301 diluted in swimming (E3) media or administered via IP injections. Mice treatment followed the same procedures as described in [18]. Following treatment, animals or tissue samples were incubated in Click-it EdU or Click-it Plus TUNEL kits (Thermo Scientific, Waltham, MA, USA), following the manufacturer’s instructions to label proliferating and apoptotic cells, respectively.

HT-1080 = assay: TACS MTT cell proliferation / metabolic activity assay in HT-1080; format: cell-based, human; details: for Increase in MTT absorbance compared to DMSO controls and untreated cells: HT-1080, low-dose exposure (≤5 μM); for MTT absorbance change at higher concentrations: HT-1080, ≥5 μM
Procedure: as §1, §2

Neuro-2A = assay: TACS MTT cell proliferation / metabolic activity assay in Neuro-2A; format: cell-based, mouse; details: for Increase in MTT absorbance compared to DMSO controls and untreated cells: low-dose exposure (≤5 μM); for MTT absorbance change at higher concentrations: ≥5 μM
Procedure: as §1, §2

[1] = test system: zebrafish neuromast cells; assay: TUNEL assay in zebrafish neuromasts; format: in vivo, zebrafish (Danio rerio); details: 400 μM, 6 h
Procedure: Absorbance was measured with SpectraMax® M Series Multi-Mode Microplate Reader with Soft Max Pro 7.2 GxP Software (Molecular Devices, Sunnyvale, CA, USA), and the average OD in control cells was taken as 100% of viability. […] Mice treatment followed the same procedures as described in [18]. Following treatment, animals or tissue samples were incubated in Click-it EdU or Click-it Plus TUNEL kits (Thermo Scientific, Waltham, MA, USA), following the manufacturer’s instructions to label proliferating and apoptotic cells, respectively.

Row | SMILES | Proliferative effect and metabolic activity at low concentrations (HEI-OC1 cells) | Proliferative effect vs Qx-70 and untreated cells (HEI-OC1 cells) | Metabolic and proliferative activities at high concentrations (HEI-OC1 cells) | Increase in MTT absorbance compared to DMSO controls and untreated cells (HT-1080) [%] | MTT absorbance change at higher concentrations (HT-1080) | Increase in MTT absorbance compared to DMSO controls and untreated cells (Neuro-2A) [%] | MTT absorbance change at higher concentrations (Neuro-2A) | Cell death (TUNEL) in neuromasts, positive control [1]
1 | CCNc1cnc2ccccc2n1 [Qx-292, 2-(ethylamine)-quinoxaline] | high proliferative effect and increased metabolic activity | significant and reproducible proliferative effects greater than those of Qx-70 and the untreated cells | declined | ≤ 9 | moderate reductions | ≤ 9 | moderate reductions | –
2 | c1ccc2nc(N3CCSCC3)cnc2c1 [Qx-295, 2-(thiomorpholine)-quinoxaline] | high proliferative effect and increased metabolic activity | significant and reproducible proliferative effects greater than those of Qx-70 and the untreated cells | declined | ≤ 9 | moderate reductions | ≤ 9 | moderate reductions | –
3 | CC(=O)N1CCN(c2cnc3ccccc3n2)CC1 [Qx-296, 2-(4-acetylpiperazine)-quinoxaline] | high proliferative effect and increased metabolic activity | significant and reproducible proliferative effects greater than those of Qx-70 and the untreated cells | declined | ≤ 9 | moderate reductions | ≤ 9 | moderate reductions | –
4 | N.N.[Cl][Pt][Cl] [cisplatin, reference compound] | – | – | – | – | – | – | – | extensive cell death

From publication PMC12731105, “Design and Synthesis of New Quinoxaline Analogs to Regenerate Sensory Auditory Hair Cells” (Cells, 2025)
